From patent US20240043420A1, “7-AZAINDOLE COMPOUNDS FOR INHIBITION OF BCR-ABL TYROSINE KINASES” (EnLiven Therapeutics, Inc., priority 2020, published 2024)

Legend:
K562 cells = test: K562 cell proliferation assay (CellTiter-Glo); format: cell-based; conditions: Homo sapiens, K562, 72 h, CellTiter-Glo viability, read-out: Cell Line (IC50, nM) K562
Procedure: (§1) K562 and HL60 cells, cultured in Iscove's Modified Dulbecco's Media (IMDM) supplemented with 10% FBS, were harvested at 50-80% confluency and plated at 2,000 cells per well (K562) or 1,500 cells per well (HL60) in 384-well tissue culture plates. A subset of wells contained media only (low control, LC). Compounds were serially diluted in DMSO. 40 nL of compound or DMSO only (high control, HC) were added to each well using an Echo 550 liquid handler (Labcyte). The plates were placed in a 37° C. incubator with 5% CO2 for 72 hours. Cell viability was measured using a CellTiter-Glo luminescent cell viability assay (Promega), which allows for relative quantification of metabolically active cells by luminescence-based measurements of intracellular ATP concentrations. Briefly, plates were removed from the incubator and equilibrated for 15 minutes at room temperature prior to the addition of 40 μL of CellTiter-Glo reagent. Plates were then incubated for 30 minutes at room temperature. Luminescence was measured using an EnSpire plate reader (Perkin Elmer). As noted above, luminescence values from wells with DMSO only or media without cells were used as high and low controls (HC and LC), respectively. Normalized percent viability was calculated as follows: percent viability=100×(Lumsample−LumLC)/(LumHC−LumLC).

HL60 cells = test: HL60 cell proliferation assay (CellTiter-Glo); format: cell-based; conditions: Homo sapiens, HL-60, 72 h, CellTiter-Glo viability, read-out: Cell Line (IC50, nM) HL60
Procedure: as §1

ABL1 = target: T1, ABL1 (Homo sapiens, UniProt P00519); test: Luminescence-based ABL kinase assay (ADP-Glo, 300 μM ATP); format: biochemical
T1 construct: purchased Carna Biosciences
Summary of the method: (§2)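 Buffer: 50 mM HEPES pH 7.5, 10 mM MgCl2, 1 mM EGTA, 2 mM DTT, 0.05% BSA. Compound preincubated 30 min at RT with kinase (3.325 nM in enzyme solution), then started with a Peptide 2 (6 μM) and ATP (1.2 mM) solution, both stock levels; 90 min at RT.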

ABL1 (T315I) = ABL1 (T315I) (Homo sapiens, UniProt P00519, T315I); test: Luminescence-based ABL kinase assay (ADP-Glo, 300 μM ATP), T315I mutant; format: biochemical
Summary of the method: as §2

Compound | IC50 (K562 cells) [nM] | IC50 (HL60 cells) [nM] | IC50 (ABL1) [nM] | IC50 (ABL1 (T315I)) [nM]
COc1ccc(F)cc1-c1n[nH]c2nc(NC(=O)NCCN3CCN(C)CC3)ccc12 [Compound 79, 3-[3-(5-fluoro-2-methoxyphenyl)-1H-pyrazolo[3,4-b]pyridin-6-yl]-1-[2-(4-methylpiperazin-1-yl)ethyl]urea] | 719 | > 10000 | 143 | 108
COc1c(-c2c[nH]c3nc(NC(=O)[C@@H]4C[C@@H]4F)ccc23)ccc2cn[nH]c12 [Compound 81, (1S,2S)-2-fluoro-N-(3-(7-methoxy-1H-indazol-6-yl)-1H-pyrrolo[2,3-b]pyridin-6-yl)cyclopropane-1-carboxamide] | 96.2 | > 10000 | 12.2 | 12.9
COc1nc2[nH]cnc2cc1-c1c[nH]c2nc(NC(=O)[C@@H]3C[C@@H]3F)ccc12 [Compound 83, (1S,2S)-2-fluoro-N-(3-[5-methoxy-3H-imidazo[4,5-b]pyridin-6-yl]-1H-pyrrolo[2,3-b]pyridin-6-yl)cyclopropane-1-carboxamide] | 48.8 | > 10000 | 1.52 | 1.74
COc1cc2sncc2cc1-c1c[nH]c2nc(NC(=O)[C@@H]3C[C@@H]3F)ccc12 [Compound 84, (1S,2S)-2-fluoro-N-[3-(6-methoxy-1,2-benzothiazol-5-yl)-1H-pyrrolo[2,3-b]pyridin-6-yl]cyclopropane-1-carboxamide] | 150 | > 10000 | 37 | 14.9
COc1cc2scnc2cc1-c1c[nH]c2nc(NC(=O)[C@@H]3C[C@@H]3F)ccc12 [Compound 85, (1S,2S)-2-fluoro-N-[3-(6-methoxy-1,3-benzothiazol-5-yl)-1H-pyrrolo[2,3-b]pyridin-6-yl]cyclopropane-1-carboxamide] | 46 | 7250 | 5.34 | 27.8
COc1cc2ncoc2cc1-c1c[nH]c2nc(NC(=O)[C@@H]3C[C@@H]3F)ccc12 [Compound 87, (1S,2S)-2-fluoro-N-(3-(5-methoxybenzo[d]oxazol-6-yl)-1H-pyrrolo[2,3-b]pyridin-6-yl)cyclopropane-1-carboxamide] | 94.1 | > 10000 | 9.54 | 6.59
COc1cc2ocnc2cc1-c1c[nH]c2nc(NC(=O)[C@@H]3C[C@@H]3F)ccc12 [Compound 88, (1S,2S)-2-fluoro-N-(3-(6-methoxybenzo[d]oxazol-5-yl)-1H-pyrrolo[2,3-b]pyridin-6-yl)cyclopropane-1-carboxamide] | 84.1 | > 10000 | 18.6 | 30.9
COc1c(-c2n[nH]c3nc(NC(=O)[C@@H]4C[C@@H]4F)ccc23)ccc2[nH]cnc12 [Compound 90, (1S,2S)-2-fluoro-N-[3-(4-methoxy-1H-1,3-benzodiazol-5-yl)-1H-pyrazolo[3,4-b]pyridin-6-yl]cyclopropane-1-carboxamide] | 1100 | > 10000 | 21.7 | 15
COc1ccccc1-c1c[nH]c2nc(NC(=O)[C@H]3C[C@H]3CO)ccc12 [Compound 91, (1S,2R)-2-(hydroxymethyl)-N-[3-(2-methoxyphenyl)-1H-pyrrolo[2,3-b]pyridin-6-yl]cyclopropane-1-carboxamide] | 1080 | > 10000 | 166 | 24.6
COc1ncc(F)cc1-c1c[nH]c2nc(NC(=O)[C@@H]3C[C@@H]3F)ccc12 [Compound 92, (1S,2S)-2-fluoro-N-[3-(5-fluoro-2-methoxypyridin-3-yl)-1H-pyrrolo[2,3-b]pyridin-6-yl]cyclopropane-1-carboxamide] | 248 | > 10000 | 39.4 | 27.3
O=C(Nc1ccc2c(-c3ccccc3OC3CC3)n[nH]c2n1)[C@@H]1C[C@@H]1F [Compound 94, (1S,2S)—N-(3-(2-cyclopropoxyphenyl)-1H-pyrazolo[3,4-b]pyridin-6-yl)-2-fluorocyclopropane-1-carboxamide] | 55.6 | 7580 | 10.8 | 6.36
COc1cc2[nH]nnc2cc1-c1c[nH]c2nc(NC(=O)[C@@H]3C[C@@H]3F)ccc12 [Compound 96, (1S,2S)-2-fluoro-N-[3-(6-methoxy-1H-1,2,3-benzotriazol-5-yl)-1H-pyrrolo[2,3-b]pyridin-6-yl]cyclopropane-1-carboxamide] | 862 | > 10000 | 8.87 | 8.93
COc1cc(F)ccc1-c1n[nH]c2nc(NC(=O)[C@@H]3C[C@@H]3F)ccc12 [Compound 99, (1S,2S)-2-fluoro-N-[3-(4-fluoro-2-methoxyphenyl)-1H-pyrazolo[3,4-b]pyridin-6-yl]cyclopropane-1-carboxamide] | 129 | > 10000 | 14.9 | 25.7
[2H]C([2H])([2H])Oc1ccccc1-c1n[nH]c2nc(NC(=O)[C@@H]3C[C@@H]3F)ccc12 [Compound 101, (1S,2S)-2-fluoro-N-(3-(2-(methoxy-d3)phenyl)-1H-pyrazolo[3,4-b]pyridin-6-yl)cyclopropane-1-carboxamide] | 94.2 | > 10000 | 16.4 | 15.3
COc1ncnc(OC)c1-c1c[nH]c2nc(NC(=O)[C@@H]3C[C@@H]3F)ccc12 [Compound 102, (1S,2S)—N-[3-(4,6-dimethoxypyrimidin-5-yl)-1H-pyrrolo[2,3-b]pyridin-6-yl]-2-fluorocyclopropane-1-carboxamide] | 48 | > 10000 | 12.5 | 17.8
CCNC(=O)Nc1ccc2c(-c3ccccc3OC)c[nH]c2n1 [Compound 103, 3-ethyl-1-[3-(2-methoxyphenyl)-1H-pyrrolo[2,3-b]pyridin-6-yl]urea] | 751 | > 10000 | 99.2 | 32.5
CCN1CCN(CCNC(=O)Nc2ccc3c(-c4ccccc4OC)c[nH]c3n2)CC1 [Compound 109, 1-[2-(4-ethylpiperazin-1-yl)ethyl]-3-[3-(2-methoxyphenyl)-1H-pyrrolo[2,3-b]pyridin-6-yl]urea] | 278 | > 10000 | 39 | 7.08
COc1ccccc1-c1c[nH]c2nc(NC(=O)NCCC3CCN(C4COC4)CC3)ccc12 [Compound 110, 3-[3-(2-methoxyphenyl)-1H-pyrrolo[2,3-b]pyridin-6-yl]-1-[2-[1-(oxetan-3-yl)piperidin-4-yl]ethyl]urea] | 382 | > 10000 | 74.8 | 18.2
COc1cc2ncnn2cc1-c1c[nH]c2nc(NC(=O)[C@@H]3C[C@@H]3F)ccc12 [Compound 111, (1S,2S)-2-fluoro-N-(3-(7-methoxy-[1,2,4]triazolo[1,5-a]pyridin-6-yl)-1H-pyrrolo[2,3-b]pyridin-6-yl)cyclopropane-1-carboxamide] | 321 | > 10000 | 14.3 | 151
COc1nccc(C)c1-c1n[nH]c2nc(NC(=O)[C@@H]3C[C@@H]3F)ccc12 [Compound 112, (1S,2S)-2-fluoro-N-[3-(2-methoxy-4-methylpyridin-3-yl)-1H-pyrazolo[3,4-b]pyridin-6-yl]cyclopropane-1-carboxamide] | 1860 | > 10000 | 271 | 157
